Results reported in PubChem BioAssay (NCI).
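In this assay, cells in 96-well plates receive the compound at five concentrations for 48 hours. Endpoints are linearly interpolated between the surrounding concentrations. GI50 is the concentration that inhibits growth by half. TGI: total growth inhibition.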

Tests used:
Assay in all cases: inhibition of tumour cell growth, NCI panel, 48 h
UACC-62 melanoma = system: UACC-62 melanoma
HCT-15 colon = system: HCT-15 colon
UO-31 renal = system: UO-31 renal
MOLT-4 leukemia = system: MOLT-4 leukemia
SNB-19 CNS = system: SNB-19 CNS
UACC-257 melanoma = system: UACC-257 melanoma
OVCAR-3 ovarian = system: OVCAR-3 ovarian
SF-539 CNS = system: SF-539 CNS
KM12 colon = system: KM12 colon
LOX IMVI melanoma = system: LOX IMVI melanoma

| SMILES | TGI (UACC-62 melanoma) [µM] | TGI (HCT-15 colon) [µM] | TGI (UO-31 renal) [µM] | TGI (MOLT-4 leukemia) [µM] | TGI (SNB-19 CNS) [µM] | TGI (UACC-257 melanoma) [µM] | TGI (OVCAR-3 ovarian) [µM] | TGI (SF-539 CNS) [µM] | TGI (KM12 colon) [µM] | TGI (LOX IMVI melanoma) [µM] | GI50 (UACC-62 melanoma) [µM] | GI50 (HCT-15 colon) [µM] | GI50 (UO-31 renal) [µM] | GI50 (MOLT-4 leukemia) [µM] | GI50 (SNB-19 CNS) [µM] | GI50 (UACC-257 melanoma) [µM] | GI50 (LOX IMVI melanoma) [µM] |
| --- | --- | --- | --- | --- | --- | --- | --- | --- | --- | --- | --- | --- | --- | --- | --- | --- | --- |
| O=C(O)C(C1NCCS1)N1C(=O)c2ccccc2C1=O (centres undefined) | > 100 | > 100 | > 100 | > 100 | > 100 | > 100 | > 100 | > 100 | > 100 | > 100 | – | – | – | – | – | – | – |
| COc1cccc(/C=N/[N+](C)(C)C)c1O | > 10 | > 10 | > 10 | > 10 | > 10 | > 10 | > 10 | > 10 | > 10 | > 10 | – | – | – | – | – | – | – |
| Cc1ccnn1CCc1ccc(Cl)cc1Cl | 29.1 | > 100 | 46.3 | 56.6 | > 100 | > 100 | 45.3 | 49.6 | > 100 | > 100 | – | – | – | – | – | – | – |
| COc1ccc2[nH]c(=O)cc(C)c2c1[N+](=O)[O-] | > 100 | > 100 | > 100 | > 100 | > 100 | > 100 | > 100 | > 100 | > 100 | > 100 | – | – | – | – | – | – | – |
| COc1cc2c(/C=C3/C(=O)Nc4cc(C)c(O)cc43)c(Cl)[nH]c2cc1C | 8.77 | 13.5 | 17.7 | 0.835 | 14.8 | 19.6 | 3.68 | 5.93 | 10.2 | 35.5 | – | – | – | – | – | – | – |
| CC(C)(C(=O)N(C(=O)N1CCN(c2ccccc2)CC1)S(=O)(=O)c1ccccc1)c1ccc(Cl)cc1 | > 100 | > 100 | 34.3 | 17.6 | > 100 | > 100 | 99.3 | > 100 | > 100 | > 100 | – | – | – | – | – | – | – |
| CCOC(=O)C1=C(C)N(Cc2ccccc2)C2(O)C=CC(=O)C3C(=O)N(c4ccccc4)C(=O)C132 (centres undefined) | 4.01 | 5.14 | 3.81 | 5.54 | 21.4 | 7.59 | 6.08 | 3.45 | 4.59 | 3.43 | – | – | – | – | – | – | – |
| C=C1C(=O)OC2/C=C(CO)/C=C\C3OC3(C)CC(OC(=O)/C(C)=C/COC(C)=O)C12 (centres undefined) | 4.96 | 4.27 | 17.9 | 5.49 | 25.1 | 6.59 | 6.68 | 4.39 | 14.2 | 3.05 | – | – | – | – | – | – | – |
| C=CCn1c(C)nc2cc(Nc3nc(N4CCCC4)nc4nc[nH]c34)ccc21 | > 100 | > 100 | > 100 | > 100 | > 100 | > 100 | – | – | – | > 100 | > 100 | > 100 | > 100 | > 100 | > 100 | > 100 | > 100 |
| CS(C)(=O)=Nn1c(=O)n2n(c1=O)[C@H]1CC[C@@H]2C1 | > 100 | > 100 | > 100 | > 100 | > 100 | > 100 | > 100 | > 100 | > 100 | > 100 | – | – | – | – | – | – | – |
| O=C1C=CC2(C=C1)O[C@H](CCc1ccccc1)[C@@H](CCc1ccccc1)O2 | > 100 | > 100 | > 100 | > 100 | > 100 | > 100 | > 100 | > 100 | > 100 | 27.3 | – | – | – | – | – | – | – |
| CSc1nc2c(ncn2C2OC(CO)C(O)C(O)C2O)c(=O)n1C (centres undefined) | > 100 | > 100 | > 100 | > 100 | > 100 | > 100 | > 100 | > 100 | > 100 | > 100 | – | – | – | – | – | – | – |
